Test [1] deals with T1, E. coli BW25113 ΔbamBΔtolC (vector).
T1 construct: BW25113 ΔbamBΔtolC, empty vector
In words: microbe, parasite or virus in culture. Set-up: CLSI broth microdilution MIC in Mueller-Hinton broth. The note with it: Escherichia coli, BW25113, 24 h. As to the method: (§1) mphB was codon optimized, synthetized as a gBlock (IDT) and cloned into pET28a with an N-terminal histidine tag. The codon optimized mphB sequence is in Supplementary Table 17. mphI was previously cloned into pET22b[36]. pGDP4 is a derivative of pET28a with the multiple-cloning site under the control of the constitutive lac promoter. mphI was subcloned into pGDP4 using the XbaI and XhoI restriction sites. E. coli was routinely cultured on LB-Lennox (Bioshop) at 37 °C overnight, and either 100 µg mL^−1 ampicillin or 50 µg mL^−1 kanamycin was used for plasmid selection. E. coli TOP10 (Invitrogen) was used for routine cloning experiments and susceptibility testing of mphs cloned into pGDP4. E. coli BL21(DE3) (Stratagene, USA)was used for protein overexpression experiments. E. coli BW25113 ΔbamBΔtolC is an antibiotic hypersensitive, and was used for susceptibility testing of Mphs cloning into pGDP4. Antibiotic susceptibility testing was performed according to the Clinical and Laboratory Standards Institute guidelines[74] for determining minimal inhibitory concentration (MIC) in 96-well plates (Sarstedt, Germany) in duplicate. MIC values were reproducible. A saline suspension of OD600 of 0.1 was made from 2–3 colonies of a fresh overnight, and diluted 1:200 into Mueller-Hinton Broth (BD Biosciences). […] Susceptibility assays were performed at least two independent times.

Another test deals with T2, MphK (Bacillus subtilis, UniProt P42242).
T2 construct: full-length, His-tagged, expressed in E. coli BL21(DE3), Ni-NTA purified
Set-up: PK/LDH-coupled continuous assay of macrolide phosphorylation; steady-state kinetics, NADH absorbance. The note with it: substrate inhibition. As to the method:
Steady-state kinetics for Mphs were measured using the continuous PK/LDH-coupled assay[27],[32],[36],[71]. Reactions were performed in 96-well plates (Nunc, Thermo Scientific) using Spectramax Plus384 (Molecular Devices) in duplicate. Individual reactions were 100 µL and contained 50 mM HEPES pH 7.5, 40 mM KCl, 10 mM MgCl2, 0.2 mM NADH, 3.5 mM PEP, and 4.8 U PK/LDH (pyruvate kinase/lactate dehydrogenase). […] For determining the Km for macrolides, GTP was maintained at 200 µM and macrolides were varied between 0.49 µM and 1000 µM. Enzyme efficiency varied considerably between substrates, and therefore some enzymes were used at different concentrations depending on the substrate in order to produce a linear range suitable for Km determination. These concentrations were as follows; MphB 140 nM (most substrates), MphB 36 nM (josamycin), MphI 45 nM (descladinose macrolides), MphI 1.44 µM (C3 cladinose macrolides), Azi_1.1 90 nM (all substrates), Ery_1 (all substrates), MphK 680 nM (all substrates), MphIS111R/T166E/P211L 90 nM (descladinose macrolides), MphIS111R/T166E/P211L 1.43 µM (C3 cladinose macrolides), MphIM40A/S111R/T166E 22 nM (descladinose macrolides), MphIM40A/S111R/T166E 430 nM (C3 cladinose macrolides), MphIS111R/T166E 22 nM (descladinose macrolides), MphIS111R/T166E 1.43 µM (C3 cladinose macrolides). Enzyme kinetics experiments were performed at least two independent times. […]

In another test the target is T3, MphB (Escherichia coli, UniProt A0A0H3EUF3).
T3 construct: codon-optimized gene, N-terminal His tag in pET28a, expressed in E. coli BL21(DE3), Ni-NTA purified
In words: biochemical. Set-up: PK/LDH-coupled continuous assay of macrolide phosphorylation; steady-state kinetics, NADH absorbance. To be noted: substrate inhibition. The protocol: Steady-state kinetics for Mphs were measured using the continuous PK/LDH-coupled assay[27],[32],[36],[71]. Reactions were performed in 96-well plates (Nunc, Thermo Scientific) using Spectramax Plus384 (Molecular Devices) in duplicate. Individual reactions were 100 µL and contained 50 mM HEPES pH 7.5, 40 mM KCl, 10 mM MgCl2, 0.2 mM NADH, 3.5 mM PEP, and 4.8 U PK/LDH (pyruvate kinase/lactate dehydrogenase). […] For determining the Km for macrolides, GTP was maintained at 200 µM and macrolides were varied between 0.49 µM and 1000 µM. Enzyme efficiency varied considerably between substrates, and therefore some enzymes were used at different concentrations depending on the substrate in order to produce a linear range suitable for Km determination. These concentrations were as follows; MphB 140 nM (most substrates), MphB 36 nM (josamycin), MphI 45 nM (descladinose macrolides), MphI 1.44 µM (C3 cladinose macrolides), Azi_1.1 90 nM (all substrates), Ery_1 (all substrates), MphK 680 nM (all substrates), MphIS111R/T166E/P211L 90 nM (descladinose macrolides), MphIS111R/T166E/P211L 1.43 µM (C3 cladinose macrolides), MphIM40A/S111R/T166E 22 nM (descladinose macrolides), MphIM40A/S111R/T166E 430 nM (C3 cladinose macrolides), MphIS111R/T166E 22 nM (descladinose macrolides), MphIS111R/T166E 1.43 µM (C3 cladinose macrolides). Enzyme kinetics experiments were performed at least two independent times. Steady-state kinetics of Mphs

Test [2] relates to T4, E. coli BW25113 ΔbamBΔtolC.
T4 construct: BW25113 ΔbamBΔtolC empty vector pGDP4
In words: microbe, parasite or virus in culture. The note with it: Escherichia coli, BW25113, 24 h; empty vector. The protocol: as §1

Another test addresses T5, MphH (Brachybacterium faecium, UniProt C7MEP1).
T5 construct: pMCSG53, N-terminal His6 tag and TEV site, crystallized
In words: X-ray crystal structure. It counts as binding. The note with it: macrolide-binding cleft; 5 mM azithromycin.

In another test the test system is T6, MphI.
T6 construct: full-length, His-tagged in pET22b, expressed in E. coli BL21(DE3), Ni-NTA purified; primers span nt 1-927
In words: PK/LDH-coupled continuous assay. The test is classed as biochemical, Paenibacillus sp. LC231. To be noted: 200 uM GTP, 10 mM MgCl2, 40 mM KCl, pH 7.5.

Values after ≈ are worked out from the molar mass of the structure shown.

In test [1], `CO[C@@H]1[C@@H](O[C@@H]2O[C@H](C)[C@@H](O[C@H]3C[C@@](C)(O)[C@@H](OC(=O)CC(C)C)[C@H](C)O3)[C@H](N(C)C)[C@H]2O)[C@@H](CC=O)C[C@@H](C)[C@@H](O)/C=C/C=C/C[C@@H](C)OC(=O)C[C@H]1OC(C)=O` [josamycin] came in with an MIC of 2 to 4 µg/mL (≈ 2.42 to 4.83 µM).

For the molecule `CO[C@@H]1[C@@H](O[C@@H]2O[C@H](C)[C@@H](O[C@H]3C[C@@](C)(O)[C@@H](O)[C@H](C)O3)[C@H](N(C)C)[C@H]2O)[C@@H](CC=O)C[C@@H](C)[C@@H](O[C@H]2CC[C@H](N(C)C)[C@@H](C)O2)/C=C/C=C/C[C@@H](C)OC(=O)C[C@H]1O` [Spiramycin], the Ki on MphK turned out to be 750 ± 160 µM; at MphB, 39 ± 16 µM. The same molecule yielded an MIC in test [2] of 2 µg/mL (≈ 2.37 µM).

For orientation: Km means the concentration of substrate that gives half-maximal velocity. On to `CC[C@H]1OC(=O)[C@H](C)[C@@H](O[C@H]2C[C@@](C)(OC)[C@@H](O)[C@H](C)O2)[C@H](C)[C@@H](O[C@@H]2O[C@H](C)C[C@H](N(C)C)[C@H]2O)[C@](C)(O)C[C@@H](C)CN(C)[C@H](C)[C@@H](O)[C@]1(C)O` [azithromycin], for which the X-ray crystal structure entry on MphH was “MphH (Se-Met) azithromycin complex (5UXD)”. In test [2], this molecule returned an MIC of 0.063 µg/mL (≈ 0.0841 µM). The Km in the test with MphI was found to be 56 ± 3 µM.

The values above are taken from paper PMC5760710, “The evolution of substrate discrimination in macrolide antibiotic resistance enzymes” (Nature Communications, 2018).
